Measurements taken from ChEMBL document CHEMBL1201862, “PubChem BioAssay data set” (2004).
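Values below derive from 48-hour exposures of cells grown in 96-well plates, with endpoints linearly interpolated between the two concentrations bracketing the appropriate inhibition level. Here, GI50 denotes the concentration required for 50% inhibition of growth.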 Activity calls are given as the source filed them. Rule as the data show it: active = GI50 up to about 1.1 µM and inactive = higher.

What was measured:
Assay in all cases: NCI tumour cell line growth inhibition, 48 h
[1] = system: SW-620
[2] = system: SNB-75
[3] = system: SNB-19
[4] = system: HCT-15
[5] = system: DMS-273
[6] = system: UO-31
[7] = system: COLO 205
[8] = system: OVCAR-4
[9] = system: LOX IMVI
[10] = system: CCRF-CEM
[11] = system: SK-OV-3
[12] = system: ACHN
[13] = system: LXFL 529
[14] = system: HCT-116
[15] = system: SF-539
[16] = system: IGROV-1
[17] = system: A549
[18] = system: SF-268
[19] = system: SR
[20] = system: RPMI-8226
[21] = system: UACC-257
[22] = system: M19-MEL
[23] = system: NCI-H460
[24] = system: DLD-1
[25] = system: M14
[26] = system: NCI-H23
[27] = system: Malme-3M
[28] = system: HCC 2998
[29] = system: TK-10
[30] = system: MOLT-4
[31] = system: UACC-62
[32] = system: RXF 393
[33] = system: KM-20L2
[34] = system: XF498
[35] = system: HOP-18
[36] = system: NCI-H226
[37] = system: EKVX
[38] = system: A498
[39] = system: HL-60
[40] = system: CAKI-1
[41] = system: U-251
[42] = system: SN12C
[43] = system: 786-0
[44] = system: OVCAR-5
[45] = system: K562
[46] = system: HOP-92
[47] = system: RXF 631
[48] = system: SK-MEL-28
[49] = system: SNB-78
[50] = system: OVCAR-3
[51] = system: NCI-H522
[52] = system: SF-295
[53] = system: OVCAR-8
[54] = system: HT-29
[55] = system: KM12
[56] = system: DMS-114
[57] = system: HOP-62
[58] = system: SK-MEL-2

Measured: GI50

CC1CCCc2c(CC3CC(=O)NC(=O)C3)n[nH]c21 (stereo not given)
inactive: [1] > 100 µM | [2] > 100 µM | [3] > 100 µM | [5] > 100 µM | [6] > 100 µM | [7] > 100 µM | [8] > 100 µM | [9] > 100 µM | [10] > 100 µM | [11] > 100 µM | [12] > 100 µM | [13] > 100 µM | [14] > 100 µM | [15] > 100 µM | [16] > 100 µM | [17] > 100 µM | [18] > 100 µM | [19] > 100 µM | [20] > 100 µM | [21] > 100 µM | [22] > 100 µM | [23] > 100 µM | [24] > 100 µM | [25] > 100 µM | [26] > 100 µM | [27] > 100 µM | [28] > 100 µM | [29] > 100 µM | [30] > 100 µM | [31] > 100 µM | [32] > 100 µM | [33] > 100 µM | [34] > 100 µM | [35] > 100 µM | [36] > 100 µM | [37] > 100 µM | [38] > 100 µM | [39] > 100 µM | [40] > 100 µM | [41] > 100 µM | [42] > 100 µM | [43] > 100 µM | [44] > 100 µM | [45] > 100 µM | [46] > 100 µM | [47] > 100 µM | [48] > 100 µM | [49] > 100 µM | [50] > 100 µM | [51] > 100 µM | [52] > 100 µM | [53] > 100 µM | [54] > 100 µM | [55] > 100 µM | [56] > 100 µM | [57] > 100 µM
> 100 µM: [4]

Cc1oc2c(C)c3oc(=O)cc(C)c3cc2c1CN
inactive: [1] 19.5 µM | [2] 33.9 µM | [3] 41.5 µM | [58] 46.1 µM | [6] 30.1 µM | [7] 33.1 µM | [8] 40.6 µM | [9] 16.2 µM | [10] 41.9 µM | [11] 23.7 µM | [12] 27.7 µM | [13] 37.5 µM | [14] 22.8 µM | [15] 40.9 µM | [17] 40.3 µM | [18] 31 µM | [20] 39.4 µM | [21] 41.3 µM | [22] 31 µM | [23] 27.9 µM | [24] 43.3 µM | [25] 38.5 µM | [26] 45.8 µM | [27] 25.2 µM | [28] 28.1 µM | [29] 27.8 µM | [30] 24.7 µM | [31] 92.3 µM | [32] 15.9 µM | [33] 34.4 µM | [34] 20.7 µM | [35] > 100 µM | [36] 34.4 µM | [37] 42.6 µM | [38] 41.5 µM | [39] 39 µM | [41] 23 µM | [42] 42.5 µM | [43] 39.9 µM | [44] 42.1 µM | [45] 37.6 µM | [47] 29.1 µM | [48] 71 µM | [49] 53.5 µM | [50] 61.4 µM | [51] 42.4 µM | [52] 38 µM | [53] 40.6 µM | [54] 31.9 µM | [55] 49.5 µM | [56] 41.2 µM | [57] 38.8 µM
36.9 µM: [4]
